Experiments:
[1] = target: T1, MAP2K2 (MEK2) Recombinant Human Protein (Homo sapiens, UniProt P36507); assay: MEK2 kinase inhibition assay (Z'-LYTE, MEK2/ERK2 coupled); assay type: biochemical; conditions: recombinant human MEK2 with ERK2, Z'-LYTE, 1.5 hours at 25° C; read-out: IC50 for inhibiting MEK kinase (MEK2)
T1 construct: purchased Invitrogen PV3615 (MEK2); PV3314 (ERK2)
Experimental: MEK2 kinase activity was tested in vitro by the following method.
MEK kinase used in the assay:
MAP2K2 (MEK2) Recombinant Human Protein (Invitrogen, Catalog No. PV3615)
MAPK1 (ERK2) Recombinant Human Protein (Invitrogen, Catalog No. PV3314)
Kit used in the assay: Z′-LYTE™ Kinase Assay Kit-Ser/Thr 03 Peptide (Invitrogen, Catalog No. PV3176).
The following in vitro assay was used to determine the activity of the compounds of the present invention for inhibiting the […] MEK kinase. The test compound was dissolved in dimethyl sulfoxide to the desired concentration. 1× Buffer A (Invitrogen, Catalog No. PV3189) was prepared, ATP was diluted with 1× Buffer A to obtain 400 μM ATP solution, appropriate amounts of Z′-LYTE™ Ser/Thr 03 Peptide (Invitrogen, Catalog No. PV3200), MEK kinase (MEK 2) enzymes, (ERK2) enzymes and 1× Buffer A were mixed, and appropriate amounts of Z′-LYTE™ Ser/Thr 03 phosphoPeptide substrate (Invitrogen, Catalog No. PV3215) and 1× Buffer A were formulated into a mixture to be tested. The 4% DMSO solution of the test compound was prepared from 1× buffer and DMSO solution of the test compound. 2.5 μL DMSO solution of the test compound was added to a reaction well, and then 2.5 μL of 400 μM ATP solution, 5 μL of enzyme and substrate mixture were added to become a 10 μL reaction system. The reaction system was incubated for 1.5 hours at 25° C., and a mixture was prepared according to Reagent A:Buffer B=1:1024. 5 μL of a mixture of Reagent A (Invitrogen, Catalog No. PV3295) and Buffer B (Invitrogen, Item No. P3127) was added to a reaction well, the reaction system was incubated for 60 minutes at 25° C., and then the fluorescence was read by a NovoStar ELISA with excitation wavelength: 400 nm, and emission wavelength: 445 nm and 520 nm.
The above assay was used to determine the biochemical activity of the compounds of the present invention for inhibiting MEK kinase (MEK2).

[2] = target: T2, CYP1A2 (Homo sapiens, UniProt P05177); assay: In vitro CYP enzyme inhibition, human liver microsomes; assay type: in vitro ADME; conditions: probe Phenacetin, single point method
T2 construct: from tissue; host or cells: human liver microsomes
T2 sequence (P05177 1-516): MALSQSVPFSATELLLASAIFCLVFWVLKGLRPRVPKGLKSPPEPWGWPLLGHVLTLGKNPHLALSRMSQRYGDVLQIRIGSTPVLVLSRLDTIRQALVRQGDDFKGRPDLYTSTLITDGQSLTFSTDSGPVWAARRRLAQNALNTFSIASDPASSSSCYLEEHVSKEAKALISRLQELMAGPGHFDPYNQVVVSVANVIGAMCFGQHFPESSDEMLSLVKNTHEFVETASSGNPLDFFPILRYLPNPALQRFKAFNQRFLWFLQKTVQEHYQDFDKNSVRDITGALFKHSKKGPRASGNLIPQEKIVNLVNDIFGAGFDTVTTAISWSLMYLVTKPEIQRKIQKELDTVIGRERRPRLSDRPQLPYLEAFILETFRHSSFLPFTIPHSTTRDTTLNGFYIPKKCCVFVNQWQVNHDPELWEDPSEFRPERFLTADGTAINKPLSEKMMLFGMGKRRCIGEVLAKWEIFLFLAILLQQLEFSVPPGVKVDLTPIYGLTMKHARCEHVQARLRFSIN
Experimental: (§1) Human liver microsome incubation system was used to reflect the activity of enzymes based on the amount of metabolites produced. Enzyme inhibition of the test compounds was investigated on CYP1A2, CYP2C9, […], CYP3A4m, CYP3A4t and CYP2C19, and IC50 values (a concentration of the test compound that is required for 50% inhibition of enzyme activity) were measured. […] The appropriate amount of test compound standard sample was weighed, and diluted with DMSO to 50 mM to obtain stock solution I. The stock solution I was diluted with PBS to 100 μM to obtain the reaction liquid which is to be used in incubation. [table] The reaction mixture was prepared: 60 μL [table] The above mixture was preincubated for 5 minutes at 37° C., followed by addition of 40 μL of NADPH (2.5 mM, PBS formulation). The mixture solution was incubated for 20 minutes at 37° C. All incubated samples were set to double samples. 300 μL ice-cold acetonitrile was added to terminate the reaction. The reaction solution was added with 100 μl internal standard, mixed uniformly, and centrifuged for 10 minutes at 3500 rpm. The supernatant was transferred to the LC-MS/MS analysis. The activity of enzymes was reflected by the production amount of metabolites. Using a single point method, the formula was calculated as follows: According to the known literature: IC50>10 μM belongs to weaker inhibition, 1 μM<IC50<10 μM belong to moderate inhibition, IC50<1 μM belong to strong inhibition.

[3] = target: T3, CYP2C19 (Homo sapiens, UniProt P33261); assay: as above; assay type: in vitro ADME; conditions: probe (S)-Mephenytoin, single point method
T3 construct: from tissue; host or cells: human liver microsomes
T3 sequence (P33261 whole entry): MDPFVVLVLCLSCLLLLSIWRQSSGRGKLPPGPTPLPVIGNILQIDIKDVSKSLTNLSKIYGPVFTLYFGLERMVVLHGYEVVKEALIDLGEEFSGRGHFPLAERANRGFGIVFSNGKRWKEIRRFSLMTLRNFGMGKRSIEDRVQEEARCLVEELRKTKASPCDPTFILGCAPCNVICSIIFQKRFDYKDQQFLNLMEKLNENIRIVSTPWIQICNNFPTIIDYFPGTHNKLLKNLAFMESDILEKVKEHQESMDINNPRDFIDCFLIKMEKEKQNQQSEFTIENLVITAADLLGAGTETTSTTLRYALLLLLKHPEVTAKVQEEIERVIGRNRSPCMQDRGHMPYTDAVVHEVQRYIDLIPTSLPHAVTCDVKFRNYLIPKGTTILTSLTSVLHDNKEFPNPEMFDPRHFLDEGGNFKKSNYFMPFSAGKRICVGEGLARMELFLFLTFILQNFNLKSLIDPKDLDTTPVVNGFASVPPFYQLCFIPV
Experimental: as §1

[4] = target: CYP2C6 (Homo sapiens, UniProt P10635); assay: as above; assay type: in vitro ADME; conditions: single point method
Sequence of CYP2C6 (P10635 whole entry): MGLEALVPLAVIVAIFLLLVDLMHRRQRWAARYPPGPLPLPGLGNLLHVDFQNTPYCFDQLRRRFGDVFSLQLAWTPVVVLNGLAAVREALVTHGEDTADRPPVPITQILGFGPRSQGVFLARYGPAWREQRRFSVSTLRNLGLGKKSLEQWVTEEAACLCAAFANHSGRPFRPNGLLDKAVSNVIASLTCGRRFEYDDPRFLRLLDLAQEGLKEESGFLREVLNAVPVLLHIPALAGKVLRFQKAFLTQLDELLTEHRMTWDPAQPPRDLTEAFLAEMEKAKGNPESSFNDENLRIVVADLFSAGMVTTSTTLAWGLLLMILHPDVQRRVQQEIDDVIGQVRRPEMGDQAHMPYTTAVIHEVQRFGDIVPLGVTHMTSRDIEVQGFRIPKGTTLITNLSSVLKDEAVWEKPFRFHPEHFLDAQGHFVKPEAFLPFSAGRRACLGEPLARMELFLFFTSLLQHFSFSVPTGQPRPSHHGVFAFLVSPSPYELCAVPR
Experimental: as §1

[5] = target: T4, CYP2C9 (Homo sapiens, UniProt P11712); assay: as above; assay type: in vitro ADME; conditions: probe Diclofenac, single point method
T4 construct: from tissue; host or cells: human liver microsomes
T4 sequence (P11712 whole entry): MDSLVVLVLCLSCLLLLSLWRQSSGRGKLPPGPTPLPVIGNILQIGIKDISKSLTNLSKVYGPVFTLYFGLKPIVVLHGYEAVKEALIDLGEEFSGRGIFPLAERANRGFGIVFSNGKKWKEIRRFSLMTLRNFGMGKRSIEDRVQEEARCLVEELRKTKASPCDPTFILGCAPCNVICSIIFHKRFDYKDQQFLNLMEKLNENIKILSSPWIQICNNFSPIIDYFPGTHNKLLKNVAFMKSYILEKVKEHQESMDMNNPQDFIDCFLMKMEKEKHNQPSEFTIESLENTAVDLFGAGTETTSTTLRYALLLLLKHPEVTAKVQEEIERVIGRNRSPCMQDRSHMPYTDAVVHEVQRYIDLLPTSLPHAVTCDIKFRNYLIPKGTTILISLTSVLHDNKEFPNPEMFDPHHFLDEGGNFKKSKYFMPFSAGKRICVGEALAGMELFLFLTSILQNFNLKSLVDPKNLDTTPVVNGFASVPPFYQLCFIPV
Experimental: as §1

[6] = target: T5, CYP3A4m (Homo sapiens, UniProt P08684); assay: as above; assay type: in vitro ADME; conditions: probe Midazolam, single point method
T5 construct: from tissue; host or cells: human liver microsomes
T5 sequence (P08684 whole entry): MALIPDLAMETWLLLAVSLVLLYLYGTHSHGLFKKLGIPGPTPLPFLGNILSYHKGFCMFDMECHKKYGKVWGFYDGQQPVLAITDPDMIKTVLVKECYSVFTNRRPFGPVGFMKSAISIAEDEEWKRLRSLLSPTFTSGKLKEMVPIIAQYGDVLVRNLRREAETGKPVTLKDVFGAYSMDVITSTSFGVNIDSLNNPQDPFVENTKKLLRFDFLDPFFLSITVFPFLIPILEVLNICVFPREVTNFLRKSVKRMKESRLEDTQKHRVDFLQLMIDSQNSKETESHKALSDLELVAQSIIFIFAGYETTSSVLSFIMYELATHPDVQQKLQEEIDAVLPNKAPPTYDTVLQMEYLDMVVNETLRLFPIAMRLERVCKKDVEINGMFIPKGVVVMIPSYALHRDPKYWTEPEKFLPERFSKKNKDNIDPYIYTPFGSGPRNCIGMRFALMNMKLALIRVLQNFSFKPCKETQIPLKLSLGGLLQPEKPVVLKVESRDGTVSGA
Experimental: as §1

[7] = target: T6, CYP3A4t (Homo sapiens, UniProt P08684); assay: as above; assay type: in vitro ADME; conditions: probe Testosterone, single point method
T6 construct: from tissue; host or cells: human liver microsomes
T6 sequence (P08684 whole entry): as above
Experimental: as §1

T1 sequence (P36507 whole entry): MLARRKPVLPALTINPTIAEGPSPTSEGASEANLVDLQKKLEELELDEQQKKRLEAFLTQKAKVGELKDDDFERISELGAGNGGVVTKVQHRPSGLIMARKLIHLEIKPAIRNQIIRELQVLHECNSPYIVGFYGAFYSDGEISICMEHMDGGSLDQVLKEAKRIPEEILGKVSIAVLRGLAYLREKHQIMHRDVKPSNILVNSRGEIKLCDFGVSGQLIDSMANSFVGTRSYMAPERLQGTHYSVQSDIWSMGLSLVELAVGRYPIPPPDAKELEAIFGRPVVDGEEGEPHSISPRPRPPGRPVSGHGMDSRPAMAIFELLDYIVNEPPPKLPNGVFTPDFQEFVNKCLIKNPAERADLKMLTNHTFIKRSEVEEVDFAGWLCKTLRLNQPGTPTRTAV

IC50 [1] [nM] | IC50 [2] [µM] | IC50 [3] [µM] | IC50 [4] [µM] | IC50 [5] [µM] | IC50 [6] [µM] | IC50 [7] [µM] | SMILES
19.8 | > 50 | > 10 | > 50 | > 50 | > 50 | > 50 | CCS(=O)(=O)Nc1cccc(Oc2cc(=O)n(C)c(Nc3ccc(I)cc3F)c2C(N)=O)c1C [Example 3, 4-(3-(ethylsulfonamido)-2-methylphenoxy)-2-((2-fluoro-4-iodophenyl)amino)-1-methyl-6-oxo-1,6-dihydropyridine-3-carboxamide]
351 | > 10 | > 10 | > 10 | > 10 | > 10 | > 10 | Cc1ccc(Oc2cc(=O)n(C)c(Nc3ccc(I)cc3F)c2C(N)=O)cn1 [Example 31, 2-((2-fluoro-4-iodophenyl)amino)-1-methyl-4-((6-methylpyridin-3-yl)oxy)-6-oxo-1,6-dihydropyridine-3-carboxamide]
217 | > 10 | > 10 | > 10 | > 10 | > 10 | > 10 | Cc1ncccc1Oc1cc(=O)n(C)c(Nc2ccc(I)cc2F)c1C(N)=O [Example 29, 2-((2-fluoro-4-iodophenyl)amino)-1-methyl-4-((2-methylpyridin-3-yl)oxy)-6-oxo-1,6-dihydropyridine-3-carboxamide]
121 | > 10 | > 10 | > 10 | > 10 | > 10 | > 10 | Cc1cc(F)ccc1Oc1cc(=O)n(C)c(Nc2ccc(I)cc2F)c1C(N)=O [Example 22, 4-(4-fluoro-2-methylphenoxy)-2-((2-fluoro-4-iodophenyl)amino)-1-methyl-6-oxo-1,6-dihydropyridine-3-carboxamide]
108 | > 10 | > 10 | > 10 | > 10 | > 10 | > 10 | Cc1c(F)cccc1Oc1cc(=O)n(C)c(Nc2ccc(I)cc2F)c1C(N)=O [Example 1, 4-(3-fluoro-2-methylphenoxy)-2-((2-fluoro-4-iodophenyl)amino)-1-methyl-6-oxo-1,6-dihydropyridine-3-carboxamide]
